# Source: patent publication US9738591B2, “Antimicrobial compounds” (priority 2009, dated 2017)
# “And” between values parts separate entries of the source, which are not always exact repeats. Identical values can stand only once.
# Key:
# sheep erythrocytes = experiment: Haemolysis of sheep erythrocytes; assay type: cell-based; conditions: for Average (SD) % haemolysis (n = 2): 2% sheep erythrocytes, 37° C., 2 h
# Procedure: As an indicator of toxicity to human cells, haemolysis experiments on sheep erythrocytes were undertaken with TSB007.
# 10 mg/ml stock solution of TSB007 was prepared in 100% DMSO. Master stock solutions of TSB007 (10 mg/ml) were made by dissolving 20 mg dehydrated compound in 2 ml 100% DMSO. They were stored in foil-covered glass bottles at −20° C. Master stocks stored in this way retained full antimicrobial activity for a minimum period of 6 weeks (results not shown).
# Serial, 10-fold dilutions were performed in PBS to make solutions of 1000, 100, 10 and 1 mg/L of TSB007. In microcentrifuge tubes, 500 μl of each dilution was combined with 480 μl PBS and 20 μl washed sheep erythrocytes (100%) so that the final concentration of erythrocytes was 2% and the final concentrations of compound were 500, 50, 5 and 0.5 mg/L. Dilutions of DMSO without. TSB007 were prepared and tested as above to check for haemolysis due to DMSO. A 100% haemolysis control was prepared with 980 μl water and 20 μl erythrocyte suspension. A negative control was prepared with 980 μl PBS and 20 μl erythrocyte suspension. Dilutions and controls were prepared and tested in duplicate.
# Tubes were incubated at 37° C. for 2 h on a rocker then centrifuged at 12 000 g for 5 mins. The OD540 of the supernatant was determined using 100 μl volumes transferred to a microtitre tray. % haemolysis was determined by blanking the OD against that of the negative control and presenting the resulting OD as a proportion of the OD of the positive control (blanked with water).
# [1] = tested on: Yersinia enterocolitica ATCC 9610; experiment: Disk diffusion; assay type: cell-based; conditions: 10 mg/ml, 20 μl
# [2] = tested on: Bacillus subtilis ATCC 6633; experiment: Disk diffusion; conditions: 10 mg/ml, 20 μl
# [3] = tested on: S. typhimurium TA98, TA100 and TA1535; experiment: Ames Test for mutagenic activity, no metabolic activation; conditions: for Number of colonies: duplicate plates
compound,measurement,setting,value
O=C(O)c1ccc(/C=C/c2cc(/C=C/c3ccc(C(=O)O)cc3)cc(/C=C/c3ccc(C(=O)O)cc3)c2)cc1 [TSB007],Average (SD) % haemolysis (n = 2),sheep erythrocytes; 0.5 mg/L,−2.316 (0.695) %
same,Average (SD) % haemolysis (n = 2),sheep erythrocytes; 5 mg/L,2.175 (0.099) %
same,Average (SD) % haemolysis (n = 2),sheep erythrocytes; 50 mg/L,2.316 (0.099) %
same,haemolytic activity,sheep erythrocytes; 0.5-500 mg/L,very low
same,Average (SD) % haemolysis (n = 2),sheep erythrocytes; 500 mg/L,5.053 (0.595) %
same,"Zone diameters, 24 h TSB007",[1],7 trim
same,"Zone diameters, 24 h TSB007",[2]; 24 h,8 trim
same,"Zone diameters, 48 h TSB007",[2]; 48 h,8 trim
same,Ames Test result,"[3]; 100, 300 and 1000 μg/plate, TA98, TA100, TA1535, no metabolic activation",negative
same,Number of colonies,"[3]; TA98, 100 μg/plate, negative control 14, 12",16 and 13
same,Number of colonies,"[3]; TA98, 300 μg/plate, negative control 14, 12",11
same,Number of colonies,"[3]; TA98, 1000 μg/plate, negative control 14, 12",3 and 2
same,Number of colonies,"[3]; TA100, 100 μg/plate, negative control 113, 96",111 and 92
same,Number of colonies,"[3]; TA100, 300 μg/plate, negative control 113, 96",110 and 105
same,Number of colonies,"[3]; TA100, 1000 μg/plate, negative control 113, 96",88 and 89
same,Number of colonies,"[3]; TA1535, 100 μg/plate, negative control 28, 29",17 and 29
same,Number of colonies,"[3]; TA1535, 300 μg/plate, negative control 28, 29",16 and 24
same,Number of colonies,"[3]; TA1535, 1000 μg/plate, negative control 28, 29",0
